Results taken from patent US9126985B2, “Tetra- and pentasubstituted benzimidazolium compounds” (Boehringer Ingelheim International GmbH, priority 2013, dated 2015).

Key:
[1] = target: T1, ENaC (Epithelial Sodium Channel) (Mus musculus, UniProt Q61180+Q9WU38+Q9WU39); experiment: Ussing Chamber assay: inhibition of amiloride sensitive short circuit current in M-1 cells; assay type: cell-based; conditions: Mouse kidney M-1 cells on transwell filters, compound added to apical solution, 37° C.
T1 construct: Mouse kidney M-1 cells were cultivated in DMEM containing 5% FCS and 5 μM dexamethasone; endogenous in cells; host or cells: mouse kidney M-1 cells
T1 sequence (Q61180 1-699): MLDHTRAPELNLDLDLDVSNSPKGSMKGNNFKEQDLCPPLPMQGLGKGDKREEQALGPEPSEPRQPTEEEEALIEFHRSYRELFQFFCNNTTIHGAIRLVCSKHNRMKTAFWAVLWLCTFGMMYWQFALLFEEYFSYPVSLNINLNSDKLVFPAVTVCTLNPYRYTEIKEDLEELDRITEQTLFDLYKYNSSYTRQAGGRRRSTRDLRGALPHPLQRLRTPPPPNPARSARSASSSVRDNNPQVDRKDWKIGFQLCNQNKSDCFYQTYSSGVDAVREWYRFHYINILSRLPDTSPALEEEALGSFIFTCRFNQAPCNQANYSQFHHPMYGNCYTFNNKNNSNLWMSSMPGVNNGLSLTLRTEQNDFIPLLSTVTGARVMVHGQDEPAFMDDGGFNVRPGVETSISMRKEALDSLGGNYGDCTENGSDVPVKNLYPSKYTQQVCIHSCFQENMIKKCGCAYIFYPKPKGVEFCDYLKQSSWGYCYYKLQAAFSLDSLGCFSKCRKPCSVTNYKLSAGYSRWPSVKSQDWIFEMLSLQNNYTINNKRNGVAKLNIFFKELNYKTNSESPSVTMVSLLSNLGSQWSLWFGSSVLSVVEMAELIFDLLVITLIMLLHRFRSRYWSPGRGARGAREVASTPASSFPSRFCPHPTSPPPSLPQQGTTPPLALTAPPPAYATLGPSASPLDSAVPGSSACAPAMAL
T1 sequence (Q9WU38 1-638): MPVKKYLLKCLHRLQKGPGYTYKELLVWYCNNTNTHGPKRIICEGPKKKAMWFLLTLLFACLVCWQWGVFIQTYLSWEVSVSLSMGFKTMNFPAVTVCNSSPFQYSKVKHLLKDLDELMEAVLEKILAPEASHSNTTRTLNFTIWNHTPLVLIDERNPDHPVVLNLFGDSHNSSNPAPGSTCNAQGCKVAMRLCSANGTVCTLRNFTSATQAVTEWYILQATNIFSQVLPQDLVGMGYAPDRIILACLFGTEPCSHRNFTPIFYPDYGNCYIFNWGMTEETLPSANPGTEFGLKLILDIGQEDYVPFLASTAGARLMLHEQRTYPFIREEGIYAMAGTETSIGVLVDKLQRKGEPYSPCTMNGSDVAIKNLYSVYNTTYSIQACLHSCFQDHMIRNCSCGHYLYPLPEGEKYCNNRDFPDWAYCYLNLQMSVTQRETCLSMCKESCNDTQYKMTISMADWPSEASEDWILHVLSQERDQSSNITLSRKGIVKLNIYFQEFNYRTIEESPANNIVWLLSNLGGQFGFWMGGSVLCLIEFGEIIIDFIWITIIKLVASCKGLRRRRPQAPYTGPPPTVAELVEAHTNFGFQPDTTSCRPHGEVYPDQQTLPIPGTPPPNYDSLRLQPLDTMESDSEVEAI
T1 sequence (Q9WU39 1-655): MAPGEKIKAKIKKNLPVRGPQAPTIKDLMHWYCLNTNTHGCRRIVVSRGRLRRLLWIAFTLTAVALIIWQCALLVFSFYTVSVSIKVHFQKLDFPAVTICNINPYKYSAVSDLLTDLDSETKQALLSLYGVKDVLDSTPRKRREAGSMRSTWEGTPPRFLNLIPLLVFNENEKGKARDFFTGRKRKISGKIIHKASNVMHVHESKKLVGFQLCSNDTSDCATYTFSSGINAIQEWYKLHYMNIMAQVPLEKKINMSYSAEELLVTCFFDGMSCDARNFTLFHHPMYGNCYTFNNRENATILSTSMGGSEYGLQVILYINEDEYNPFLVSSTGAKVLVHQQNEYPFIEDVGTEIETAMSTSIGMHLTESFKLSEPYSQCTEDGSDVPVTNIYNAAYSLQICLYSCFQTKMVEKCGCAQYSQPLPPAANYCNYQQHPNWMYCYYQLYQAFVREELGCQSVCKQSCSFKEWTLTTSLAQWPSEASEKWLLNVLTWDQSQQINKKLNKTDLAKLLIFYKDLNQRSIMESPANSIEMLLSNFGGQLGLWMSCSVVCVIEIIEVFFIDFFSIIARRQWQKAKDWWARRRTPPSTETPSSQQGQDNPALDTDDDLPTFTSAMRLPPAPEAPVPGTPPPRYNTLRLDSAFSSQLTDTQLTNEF
Method: Mouse kidney M-1 cells were cultivated in DMEM containing 5% FCS and 5 μM dexamethasone for 10 to 12 days on polyester transwell filters. Filters were inserted into a teflon-coated well-plate which fit into the ussing chamber system. Prior to measurement the medium of M-1 cells was replaced with Caco-2 transport buffer (Invitrogen, Germany). During measurements, the Ussing chamber temperature was kept at 37° C. Short circuit currents (I_sc) were measured in the voltage-clamp mode with the software package Lab View for data acquisition and analysis. The transepithelial electrical resistance (TEER) was determined by the application of voltage steps of ±5 mV every 5 sec. Compounds were administered at a final concentration of 3 μM or at increasing concentrations (1-3-10 μM) to the apical solution. At the end of each experiment the amiloride sensitive I_SC was measured by adding 3 μM amiloride to the apical compartment. Results are expressed as inhibition in percent of the amiloride effect or as IC50.
With the example compounds given above, the following IC50 values were determined in the Ussing Chamber assay: […]

[2] = Permeability in CALU-3 cells; assay type: in vitro ADME; conditions: human, CALU-3 cell monolayers, pH 7.4, 37° C., 10 μM compound; for Papp A→B at 90 min, 10 μM: apical-to-basal; for Papp B→A at 90 min, 10 μM: basal-to-apical
Method: Permeability in CALU-3 Cells:
Permeability measurements across polarized, confluent CALU-3 cell monolayers grown on permeable filter supports are used to provide information on the potential of a compound to pass the lung epithelium. Apparent permeability coefficients (Papp) of the compounds across the CALU-3 cell monolayers are measured (pH 7.4, 37° C.) in apical-to-basal (AB) and basal-to-apical (BA) transport direction.
CALU-3 cells (1-2×10^5 cells/1 cm^2 area) are seeded on filter inserts (Costar transwell polycarbonate filters, 0.4 μm pore size) and cultured (for 10-12 days DMEM) until tight monolayers are formed. Compounds of interest are dissolved in appropriate solvent (DMSO, 10 mM stock solution). Stock solutions are diluted with HTP-4 buffer (128.13 mM NaCl, 5.36 mM KCl, 1 mM MgSO4, 1.8 mM CaCl2, 4.17 mM NaHCO3, 1.19 mM Na2HPO4×7H2O, 0.41 mM NaH2PO4×H2O, 15 mM HEPES, 20 mM glucose, 0.25% BSA, pH 7.4) to prepare the transport solutions (10 μM compound, final DMSO<=0.5%). The transport solution (TL) is applied to the apical or basolateral donor side for measuring A-B or B-A permeability (3 filter replicates), respectively. The receiver side contains the same buffer as the donor side. After 30 min of accommodation, samples are collected at the start t0=0 min and at the end of the experiment tn=90 min from the donor and at 0, 30, 60, and 90 min also from the receiver chamber. Volume removed is replenished by HTP-4 buffer. The compound concentration in the samples is measured by HPLC-MS/MS or scintillation counting. The permeability coefficient (Papp) and efflux ratio are calculated according to: Papp [cm/s]=(concentration receiver [nM]*volume receiver [mL]/time interval [sec])*(1/filter area)*(1/donor concentration [nM])
With example compounds given above, the following permeability values were determined in the CALU-3 cells assay: […]

Structure (SMILES): C=CC[n+]1c(CNC(=O)c2nc(Br)c(N)nc2N)n(CC)c2cc(OCCCP(=O)(OCC)OCC)ccc21 [Example 2.2]
- IC50 [1]: 2 nM

Structure (SMILES): CC[n+]1c(CNC(=O)c2nc(Cl)c(N)nc2N)n(CC2CCN(C(=O)COCCOC)CC2)c2cc([O-])ccc21 [Example 6.1]
- IC50 [1]: 3 nM

Structure (SMILES): CCn1c(CNC(=O)c2nc(Cl)c(N)nc2N)[n+](CCCC#N)c2ccc(OCCCP(=O)(O)O)cc21 [Example 4.1]
- IC50 [1]: 31 nM

Structure (SMILES): CCOP(=O)(O)CCCOc1ccc2c(c1)n(CC)c(CNC(=O)c1nc(Cl)c(N)nc1N)[n+]2CC1CCOCC1 [Example 5.1]
- IC50 [1]: 8 nM

Structure (SMILES): CCn1c(CNC(=O)c2nc(Cl)c(N)nc2N)[n+](CCOCCOCCO)c2ccc(O)cc21 [Example 1.2]
- Papp A→B at 90 min, 10 μM [2]: 0.5 ×10⁻⁶ cm/s
- Papp B→A at 90 min, 10 μM [2]: 0.3 ×10⁻⁶ cm/s
- IC50 [1]: 1 nM

Structure (SMILES): CCn1c(CNC(=O)c2nc(Br)c(N)nc2N)[n+](CCOCCOCCO)c2ccc(O)cc21.O=C([O-])C(F)(F)F [Example 2.1]
- Papp A→B at 90 min, 10 μM [2]: 1.3 ×10⁻⁶ cm/s
- Papp B→A at 90 min, 10 μM [2]: 0.2 ×10⁻⁶ cm/s
- IC50 [1]: 1 nM

Structure (SMILES): CCn1c(CNC(=O)c2nc(Cl)c(N)nc2N)[n+](CC2CCOCC2)c2cc(Cl)c(N(CCO)CCO)cc21 [Example 1.1]
- IC50 [1]: 13 nM

Structure (SMILES): CCNC(=O)COc1ccc2c(c1)n(C1CCN(C(C)=O)CC1)c(CNC(=O)c1nc(Cl)c(N)nc1N)[n+]2CC [Example 3.1]
- IC50 [1]: 10 nM
